The target of series [1] is T1, FGFR1 (Homo sapiens, UniProt P11362).
T1 construct: purchased Invitrogen PV4105
Put plainly: Z′-LYTE Detection Kinase Assay, in vitro enzymatic activity. The series is classed as biochemical. The settings on record: 0.6 nM FGFR1, 2 uM Tyr4 peptide, 10 uM ATP, 60 min 23° C. As to the method:
To measure enzyme activity by Z′-LYTE™ Detection Kinase Assay, and to evaluate the inhibitory effect of the compounds on FGFR1 using IC50 value of the compounds as an indicator. […]
Reaction Buffer: 50 mM Hepes (pH 7.5), 10 mM MgCl2, 1 mM EGTA, 0.01% Brij-35, 1 mM DTT, 2 mM MnCl2 0.6 nM FGFR1, 2 uM Tyr4 peptide and 10 uM ATP in reaction buffer (50 mM Hepes, pH 7.5, 10 mM MgCl2, 0.01% BRIJ-35, 1 mM EGTA, 4 mM MnCl2, 2 mM DTT). a. Diluting the compounds with DMSO to 10 mM, 3-fold dilution, 11 gradients, duplicate wells. b. Diluting the compound by 1:25 into middle plate at Bravo Automatic Liquid Station, then transferring 2.5 ul to the reaction plate to ensure the final DMSO concentration to be 1%. c. Transferring 5 ul of enzyme/substrate buffer into each well d. Using Multidrop Liquid Workstation to sequentially add ATP solution to each well e. Centrifuging at 1000 rpm for 1 minute f. Placing the reaction plate in an incubator at 23° C. to react for 60 min. a. Preparing a 1:128 mixture of Development Regent B and Development Buffer b. Adding 5 ul to each well and centrifuging at 1000 rpm for 1 minute c. Placing the reaction plate in a thermostat (23° C.) after centrifuging for 90 minutes, removing and reading on Envision (Perkin Elmer) Plate Reader
D. Analyzing Data: Analyzing Data Using XLFIT (IDBS) and Calculating IC50 Values for the Compounds.

Series [2] concerns SNU-16 cell. Put plainly: CellTiter-Glo Luminescent Cell Viability Assay. The series is classed as cell-based. The settings on record: Homo sapiens, 72 h; SNU-16 cells, 3 days; read-out: SNU-16 IC50 (CellTiter-Glo Detection). The method, then:
To detect the change of intracellular ATP by CellTiter-Glo® Luminescent Cell Viability Assay, and to evaluate the inhibitory effect of the compounds on in vitro cell SNU-16 using IC50 value of the compounds as an indicator.
Cell line: SNU-16 cell strain d. Diluting SNU-16 with medium, adding the diluted cells to the 384 plate (Greiner. 781090) (50 μL/well, SNU-16 cell 750 cells/well) with multi-channel pipette. Placing the cell plate in a 37° C., 5% CO2 incubator overnight. […]
g. Diluting the compound with DMSO to 10 mM, 3-fold dilution, 11 gradients, duplicate wells. h. Transferring 2.4 ul of the compound to the middle plate added with 47.6 ul of cell culture media at Bravo Automatic Liquid Station. Then transferring 5 ul to the cell culture plate (55 ul) to ensure the final DMSO concentration to be 0.4%. […]
i. Placing the cell culture plate in 5% CO2 incubator at 37° C. to continue cultivating for 3 days. d. Balancing Cell Titer Glo Reagent to room temperature e. Taking 30 ul of Cell Titer Glo Reagent in a 1:2 ratio into each well and gently mixing for 2 minutes f. Placing the cell culture plate in an incubator (23° C.) for 10 minutes, taking out and centrifuging at 1000 rpm for 1 minute g. Reading on Envision (Perkin Elmer) Plate Reader.
H. Analyzing Data: Analyzing the Data Using XLFIT (IDBS) and Calculating IC50 Values for the Compounds.

A short description of series [3]: Pharmacokinetics after intravenous and intragastric administration (Experimental Example 4). The series is classed as in vivo. The settings on record: female Balb/c nude mice; for bioavailability / AUC(0-t) / Cmax / half-life / clearance / Vd: mouse, plasma; for Cmax: read-out: peak concentration (Cmax); for half-life: read-out: elimination half-life (T1/2) (converted); for clearance: read-out: plasma clearance (CL); for Vd: read-out: steady state apparent volume of distribution (Vdss).
Procedure: Experimental Procedure: A clear solution of the test compound in 20% DMSO/60% PEG400/20% water at 1 mg/ml was injected via the caudal vein into female Balb/c nude mice (fasted overnight, 7-9 weeks of age) with a dose of 1 mg/kg. The test compound suspended in 0.5% Methocel/0.2% Tween 80 at 1 mg/ml was administered by intragastric administration to female Balb/c nude mice (fasted overnight, 7-9 weeks of age) with a dose of 10 mg/kg. About 30 μL of blood collected from the jugular vein or caudal vein at 0.0833, 0.25, 0.5, 1.0, 2.0, 4.0, 8.0 and 24 h after administration in both groups of animals, were placed in anticoagulation tube with EDTA-K2 and the plasma was centrifuged. Plasma concentrations were determined by LC-MS/MS and related pharmacokinetic parameters were calculated using the non-compartmental model linear logarithmic trapezoidal method using WinNonlin™ Version 6.3 (Pharsight, Mountain View, Calif.) pharmacokinetic software.

Series [4] concerns FGFR1/2 Highly Expressed Patient-derived Liver Tumor Transplantation Model. Put plainly: Tumor growth inhibition (TGI) analysis. The settings on record: BID. The series is classed as in vivo, mice. The method, then: The evolutionary growth potential of tumors was evaluated by the relationship between tumor volume and time. The long axis (L) and short axis (W) of the subcutaneous tumor were measured twice a week by the caliper and the tumor volume (TV) was calculated by the formula ((L×W^2)/2). TGI was calculated from the difference between the median tumor volume in the solvent group mice and the median tumor volume in the drug group mice, expressed as a percentage counting for the median tumor volume in the solvent control group, calculated by the following formula: % TGI=((median tumor volume(control)−median tumor volume(dosing group))/median tumor volume(control group))×100
The original statistical analysis was done by repeating the analysis of variance, followed by Scheffe psot hoc experimental method for multiple comparisons, with solvent alone (0.5% methylcellulose+0.2% Tween in water) as negative control.

For series [5] the following is noted: female, Balb/c nude, mouse, in vivo, 2 mg/kg.
Procedure: (§1) Experimental Procedure: A clear solution of the test compound in 20% DMSO/60% PEG400/20% water at 0.4 mg/ml was administered by intragastric administration to female Balb/c nude mice (fasted overnight, 7-9 weeks of age) with a dose of 2 mg/kg. About 30 μL of blood was collected from the jugular vein or caudal vein at 0.25, 0.5, 1.0, 2.0, 4.0, 8.0 and 24 h after administration in both groups of animals, placed in anticoagulation tube with EDTA-K2 and the plasma was centrifuged. Plasma concentrations were determined by LC-MS/MS and related pharmacokinetic parameters were calculated using the non-compartmental model linear logarithmic trapezoidal method using WinNonlin™ Version 6.3 (Pharsight, Mountain View, Calif.) pharmacokinetic software.
Series [6] in a line: in vivo. The settings on record: female, Balb/c nude, mouse, po, 2 mg/kg.
Procedure: as §1
Where [7] appears, read: po, single intragastric administration 10 mg/kg.
Where [8] appears, read: po, single intragastric administration 10 mg/kg, read-out: AUC0-last.
[9] abbreviates: single intravenous injection 1.0 mg/kg, read-out: area under the plasma concentration curve (AUC0-last).
Where [10] appears, read: single intravenous injection 1.0 mg/kg.
[11] abbreviates: single intragastric administration 10 mg/kg.

Each structure is given as a SMILES string. Read-outs that look alike come from different tables or passages of the source.

The text below walks through data of US10519133B2, “Vinyl compounds as FGFR and VEGFR inhibitors” (MEDSHINE DISCOVERY INC., priority 2015, dated 2019).

T1 sequence (P11362 22-822): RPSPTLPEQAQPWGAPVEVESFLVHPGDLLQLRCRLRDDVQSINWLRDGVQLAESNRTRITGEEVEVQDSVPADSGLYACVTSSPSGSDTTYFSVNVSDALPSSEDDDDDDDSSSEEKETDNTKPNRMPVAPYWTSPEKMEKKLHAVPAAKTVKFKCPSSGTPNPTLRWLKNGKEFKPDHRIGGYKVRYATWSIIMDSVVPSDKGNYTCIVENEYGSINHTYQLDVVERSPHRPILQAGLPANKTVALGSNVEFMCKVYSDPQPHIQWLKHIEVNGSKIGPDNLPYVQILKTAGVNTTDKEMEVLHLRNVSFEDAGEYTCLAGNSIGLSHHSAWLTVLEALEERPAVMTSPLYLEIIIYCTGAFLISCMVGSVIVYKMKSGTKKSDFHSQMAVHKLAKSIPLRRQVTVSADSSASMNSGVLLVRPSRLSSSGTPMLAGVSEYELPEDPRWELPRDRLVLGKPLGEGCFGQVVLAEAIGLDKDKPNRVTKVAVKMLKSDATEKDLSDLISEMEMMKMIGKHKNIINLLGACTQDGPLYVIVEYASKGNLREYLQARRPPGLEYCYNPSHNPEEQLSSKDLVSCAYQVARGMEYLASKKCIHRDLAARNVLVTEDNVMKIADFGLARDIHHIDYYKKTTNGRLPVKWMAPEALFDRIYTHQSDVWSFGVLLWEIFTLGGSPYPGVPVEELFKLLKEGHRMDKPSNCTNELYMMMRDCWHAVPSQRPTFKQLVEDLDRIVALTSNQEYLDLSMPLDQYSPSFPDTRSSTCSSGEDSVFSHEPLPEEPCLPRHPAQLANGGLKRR

As for `C[C@@H](Oc1ccc2[nH]nc(/C=C(\F)c3ccc(CN4CCN(CC(=O)O)CC4)nc3)c2c1)c1c(Cl)cncc1Cl` [Example 29], the IC50 (as a rule, the concentration that inhibits the measured activity by half) in series [1] was no more than 10 nM; in series [2], 10 to 1000 nM.
Regarding `COC1CCN(Cc2ccc(/C(F)=C/c3n[nH]c4ccc(O[C@H](C)c5c(Cl)cncc5Cl)cc34)cn2)C1` (some centres unmarked) [Example 34], the IC50 in series [1] and in series [2] was no more than 10 nM in each case.
On to `C[C@@H](Oc1ccc2[nH]nc(/C=C/c3ccc(CNC4CCOCC4)nc3)c2c1)c1c(Cl)cncc1Cl` [WX_015, reference compound], for which, in series [3] (setting [7]), the bioavailability – broadly, dose-corrected exposure relative to a reference, in per cent – worked out at 11.4% and the Cmax came out at 134 ± 68.3 nM. Besides, the AUC(0-t) in series [3] (setting [8]) worked out at 0.439 ± 0.202 µM·h. The AUC(0-t) in series [3] (setting [9]) amounted to 0.386 ± 0.0883 µM·h. In series [3] (setting [10]), the half-life is 0.971 ± 0.461 h; the clearance (usually a measure of how efficiently the substance is removed, as volume per time) worked out at 83.5 ± 18.5 mL/min/kg; the Vd amounted to 5.31 ± 0.268 L/kg. Further, in series [3] (setting [11]), the peak time was determined as 1.50 ± 0.866 h.
Take `C[C@@H](Oc1ccc2[nH]nc(/C=C(\F)c3ccc(CN4CCC(CO)CC4)nc3)c2c1)c1c(Cl)cncc1Cl` [Example 21]: the IC50 in series [1] and in series [2] was no more than 10 nM in each case.
Take `C[C@@H](Oc1ccc2[nH]nc(/C=C(\F)c3ccc(OCC4CCOCC4)nc3)c2c1)c1c(Cl)cncc1Cl` [Example 41]: the values for the concentration for half-maximal inhibition (IC50) in series [1] and in series [2] were 50 to 1000 nM and no more than 10 nM, respectively.
For `CC(Oc1ccc2[nH]nc(/C=C/c3cc(F)c(CN4CCOCC4)cc3C#N)c2c1)c1c(Cl)cncc1Cl` (centres unmarked) [Example 62], in that order: 50 to 1000 nM and no more than 10 nM.
Regarding `CC(Oc1ccc2[nH]nc(/C=C(\F)c3ccc(CN4CCOCC4)nc3)c2c1)c1c(Cl)cncc1Cl` (centres unmarked) [Example 16], the IC50 in series [1] is 10 to 50 nM; in series [2], no more than 10 nM. Besides, the “TGI % (last administration)” value in series [4] (15 mg/kg) came out at 84.5%.
Turning to `CC(Oc1ccc2[nH]nc(/C=C/c3ccc(CN4CCOCC4)nn3)c2c1)c1c(Cl)cncc1Cl` (centres unmarked) [Example 54], the IC50 in series [1] was no more than 10 nM. For the same compound, the “TGI % (last administration)” value in series [4] (10 mg/kg) is recorded as 85.4%.
Regarding `C[C@@H](Oc1ccc2[nH]nc(/C=C(\F)c3ccc(NC4CCNCC4)nc3)c2c1)c1c(Cl)cncc1Cl` [Example 47], the IC50 in series [1] and in series [2] was no more than 10 nM throughout.
`C[C@@H](Oc1ccc2[nH]nc(/C=C(\F)c3ccc(CN4CCNCC4)nc3)c2c1)c1c(Cl)cncc1Cl` [Example 32]: the IC50 in series [1] and in series [2] was no more than 10 nM in each case.
In series [1], `C[C@@H](Oc1ccc2[nH]nc(/C=C(\F)c3ccc(CNC4CCOCC4)nc3)c2c1)c1c(Cl)cncc1Cl` [Example 18] came in with an IC50 of no more than 10 nM. For the same compound, in series [4] (5 mg/kg), the “TGI % (last administration)” value is on record as 85%.
Take `C[C@H](Oc1ccc2[nH]nc(/C=C(\F)c3ccc(CNC4CCOCC4)nc3)c2c1)c1c(Cl)cncc1Cl` [Example 17]: the IC50 in series [1] is 50 to 1000 nM; in series [2], no more than 10 nM.
In the case of `CC(Oc1ccc2[nH]nc(/C=C/c3ccc(CNC4CCN(C)CC4)cc3)c2c1)c1c(Cl)cncc1Cl` (centres unmarked) [Example 76], the IC50 in series [1] and in series [2] was no more than 10 nM in each case.
As for `C[C@@H](Oc1ccc2[nH]nc(/C=C(\F)c3ccc(CNC4CCOCC4)nc3)c2c1)c1c(Cl)cncc1Cl` [WX_018], in series [3] (setting [7]), the bioavailability worked out at 30.1% and the Cmax turned out to be 479 ± 62.9 nM. The AUC(0-t) in series [3] (setting [8]) stood at 1.65 ± 0.0401 µM·h. Further, the AUC(0-t) in series [3] (setting [9]) was 0.567 ± 0.0194 µM·h. Moreover, in series [3] (setting [10]), the half-life is 1.57 ± 0.0286 h, the clearance came to 53 ± 1.69 mL/min/kg and the Vd is 5.45 ± 0.491 L/kg. For the same compound, the peak time in series [3] (setting [11]) is given as 2.00 h.
Regarding `C[C@@H](Oc1ccc2[nH]nc(/C=C(\F)c3ccc(NC4CCOCC4)nc3)c2c1)c1c(Cl)cncc1Cl` [Example 45], the IC50 in series [1] was 50 to 1000 nM; in series [2] it was no more than 10 nM.
For `C[C@@H](Oc1ccc2[nH]nc(/C=C(\F)c3ccc(CN4CCN(C)CC4)nc3)c2c1)c1c(Cl)cncc1Cl` [Example 33], in that order: no more than 10 nM and no more than 10 nM.
As to `CC(Oc1ccc2[nH]nc(-c3ccc(NC(=O)CN4CCOCC4)nc3)c2c1)c1c(Cl)cncc1Cl` (centres unmarked) [Example 70], the IC50 in series [1] was 50 to 1000 nM; in series [2] it was no more than 10 nM.
In turn, `CC(Oc1ccc2[nH]nc(/C=C/c3ccc(CN4CCOCC4)cc3)c2c1)c1c(Cl)cncc1Cl` (centres unmarked) [WX_063] registered a peak time in series [5] of 0.25 h. In series [6], this compound gave an AUC(0-t) of 0.221 ± 0.0713 µM·h and a Cmax of 214 ± 39.7 nM.
With `CC(Oc1ccc2[nH]nc(/C(F)=C/c3ccc(CN4CCOCC4)nc3)c2c1)c1c(Cl)cncc1Cl` (racemic) [Example 1], the IC50 in series [1] was 50 to 1000 nM; in series [2], 10 to 1000 nM.
For `CC(Oc1ccc2[nH]nc(/C=C/c3cnc(CN4CCOCC4)cn3)c2c1)c1c(Cl)cncc1Cl` (centres unmarked) [Example 53], in that order: 10 to 50 nM and no more than 10 nM.
The compound `CC(Oc1ccc2[nH]nc(/C=C/c3ccc(CN4CCOCC4)cc3)c2c1)c1c(Cl)cncc1Cl` (centres unmarked) [Example 63] came in with an IC50 in series [1] of 10 to 50 nM. In addition, the “TGI % (last administration)” value in series [4] (15 mg/kg) is listed as 86%.
